The record followed here is ChEMBL document CHEMBL3769374, “Novel N-thiazolyl piperazine-1-carboxamide CCR2 antagonists investigation of an unexpected reaction with glutathione” (Medchemcomm, 2015).

In data set [1] the target is C-C chemokine receptor type 2 (Homo sapiens, UniProt P41597). The data set can be described thus: Antagonist activity at human C-C chemokine receptor type 2 expressed in THP-1 cells assessed as inhibition of CCL2-induced calcium flux preincubated for 10 mins followed by CCL2 addition by Fluo-4 dye based FLIPR assay. Type of data set: functional, cell-based. Background: Calcium flux is commonly read through the fluorescence of an indicator in the cells.

Data set [2] can be described thus: Glutathione reactivity at 50 uM measured over 18 hrs by LC-UV method.
The target of data set [3] is T1, C-C chemokine receptor type 2 (Rattus norvegicus, UniProt O55193).
T1 sequence (O55193 whole entry): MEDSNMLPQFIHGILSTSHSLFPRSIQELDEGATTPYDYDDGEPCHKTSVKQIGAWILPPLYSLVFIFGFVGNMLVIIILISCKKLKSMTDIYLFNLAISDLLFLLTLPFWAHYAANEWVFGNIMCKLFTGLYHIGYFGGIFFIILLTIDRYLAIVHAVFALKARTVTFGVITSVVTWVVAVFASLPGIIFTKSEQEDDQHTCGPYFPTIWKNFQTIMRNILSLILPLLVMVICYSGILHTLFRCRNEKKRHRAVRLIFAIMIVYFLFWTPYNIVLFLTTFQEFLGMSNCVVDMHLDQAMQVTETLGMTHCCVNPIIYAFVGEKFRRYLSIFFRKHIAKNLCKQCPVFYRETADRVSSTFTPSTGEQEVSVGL
The data set can be described thus: Antagonist activity at rat C-C chemokine receptor type 2 assessed as inhibition of CCL2-induced calcium flux. Type of data set: functional.

A short description of data set [4]: Glutathione reactivity assessed as half life of compound at 50 uM measured over 18 hrs by LC-UV method. Type of data set: physicochemical. The note with it: glutathione solution (chemical reactivity test).

A value given as a limit tells only on which side of the number the result lay.

Chain of C-C chemokine receptor type 2 (Homo sapiens, UniProt P41597) (P41597 whole entry): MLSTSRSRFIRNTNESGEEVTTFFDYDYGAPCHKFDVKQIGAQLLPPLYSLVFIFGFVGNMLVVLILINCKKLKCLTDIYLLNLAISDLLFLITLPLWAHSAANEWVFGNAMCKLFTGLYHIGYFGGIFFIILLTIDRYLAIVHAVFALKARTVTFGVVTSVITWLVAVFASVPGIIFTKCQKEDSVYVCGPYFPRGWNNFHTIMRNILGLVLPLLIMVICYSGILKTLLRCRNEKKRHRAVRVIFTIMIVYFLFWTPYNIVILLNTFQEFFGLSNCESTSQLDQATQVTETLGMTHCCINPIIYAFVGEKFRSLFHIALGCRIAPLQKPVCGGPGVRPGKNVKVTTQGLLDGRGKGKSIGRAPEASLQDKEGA

Broadly, the IC50 is the point on the concentration scale where inhibition reaches its midpoint. As for `CC(C)N1CCN[C@@H](C(=O)N2CCN(C(=O)Nc3nc(C(C)(C)C)c(F)s3)CC2)C1`, the half-inhibitory concentration (IC50) in data set [1] was determined as 2.7 nM. Besides, the Drug metabolism result in data set [2] is “Metabolite not detected”.

As for `COc1sc(NC(=O)N2CCN(C(=O)[C@H]3CN(C(C)(C)C)CCN3)CC2)nc1C`, the IC50 in data set [1] was found to be 41 nM. Besides, the Drug metabolism result in data set [2] is listed as “Metabolite not detected”.

`Cc1nc(NC(=O)N2CCN(C(=O)[C@H]3CN(C(C)(C)C)CCN3)CC2)sc1Br`: the IC50 in data set [1] is less than 0.45 nM.

For `CC(C)(C)N1CCN[C@@H](C(=O)N2CCN(C(=O)Nc3nc(C(F)(F)F)c(Cl)s3)CC2)C1`, the IC50 stood at 0.13 nM in data set [1] and 1.3 nM in data set [3]. For the same compound, the Drug metabolism entry in data set [2] was “Metabolite not detected”.

Consider `CC(C)(C)N1CCN[C@@H](C(=O)N2CCN(C(=O)Nc3nc(C4CC4)cs3)CC2)C1`, for which the 50% inhibitory concentration (IC50) in data set [1] was found to be 1.1 nM. Also, the Drug metabolism entry in data set [2] was “Metabolite not detected”.

As to `CC(C)(C)N1CCN[C@@H](C(=O)N2CCN(C(=O)Nc3nc(C4CC4)c(Cl)s3)CC2)C1`, the half-maximal inhibitory concentration (IC50) in data set [1] is less than 0.45 nM.

Regarding `CC(C)c1nc(NC(=O)N2CCN(C(=O)[C@H]3CN(C(C)C)CCN3)CC2)sc1Cl`, the IC50 in data set [1] amounted to 1.2 nM.

Consider `CC(=O)Nc1nc(C)c(Br)s1`, for which the Drug metabolism result in data set [2] is listed as “Metabolite not detected”.

The term half-life denotes the time in which the quantity being followed falls by half. `O=[N+]([O-])c1ccc(CCl)cc1`: in data set [4], the half-life at 50 µM was 3.6 h.

Consider `CC(C)(C)N1CCN[C@@H](C(=O)N2CCN(C(=O)Nc3ncc(F)s3)CC2)C1`, for which the IC50 in data set [1] was determined as 9.2 nM. The Drug metabolism entry in data set [2] was “Metabolite not detected”.

With `Cc1nc(NC(=O)N2CCN(C(=O)[C@H]3CN(C(C)(C)C)CCN3)CC2)sc1Cl`, the half-inhibitory concentration (IC50) in data set [1] was 0.65 nM.

As to `CCc1nc(NC(=O)N2CCN(C(=O)[C@H]3CN(C(C)C)CCN3)CC2)sc1Cl`, the half-inhibitory concentration (IC50) in data set [1] was 1.7 nM.

As to `CC(C)(C)N1CCN[C@@H](C(=O)N2CCN(C(=O)Nc3ncc(Cl)s3)CC2)C1`, the half-inhibitory concentration (IC50) in data set [1] was 7.4 nM. Moreover, the Drug metabolism entry in data set [2] is “Metabolite not detected”.

In the case of `CC(C)N1CCN[C@@H](C(=O)N2CCN(C(=O)Nc3nc(C(C)(C)C)c(Cl)s3)CC2)C1`, the IC50 in data set [1] worked out at 2.3 nM.
